Where two headings read alike, the source gives them in different places.
Experiments:
DA autoreceptors [1] = test: Turning behavior in rats with acute unistriatal KCl lesion; type: in vivo, rat; design: key to Catalepsy: + present; - absent; conditions: for Apomorphine-induced turning: apomorphine 1.0 mg/kg s.c. 1 h after
Description: 5. Turning behavior in rats with acute unistriatal lesion.
In animals with an acute unilateral KCl-lesion (1μ1 25% KCl lesioned side, 1μ1 20% NaCl control side, administered through previously implanted "guide cannulaes") of the striatum, compensatory counterbalancing adjustments in the intact contralateral striatum are brought about and therefore no appreciable asymmetry in body posture or torsion is observed. Disturbances in the balance produces, depending on the point of attack, ipsi- or alternatively contralateral turning. In this model postsynaptically active DA agonists (e.g. apomorphine, high dosage) elicit ipsilateral turning and rotatory behavior whereas DA antagonists (e.g. haloperidol) cause contralateral turning. Consequently it could be expected that agents acting exclusively on DA autoreceptors would produce contralateral turning in the lesioned animals.

[2] = tested on: postsynaptic dopaminergic receptor; test: Antagonism of apomorphine-induced locomotor stimulation; type: in vivo, rat
Method: 3. Evidence for postsynaptic dopminergic receptor antagonist activity of (-)-3-PPP.
The locomotor stimulating action of the dopamine receptor aqonist apomorphine is antagonized by (-)-3-PPP. […] Thus the postsynaptic receptor antagonist activity requires a larger dose than the presynaptic receptor agonist activity, which is evident after doses down to 0.25 mg/kg.
Further, (-)-3-PPP and racemic 3-PPP have been compared regarding antagonism of apomorphine-induced locomotor stimulation. Either form of 3-PPP was injected subcutaneously in a dose of 8 mg/kg 20 min and apomorphine in a dose of 1 mg/kg subcutaneously 5 min before placing the rats in the Motron for 30 min. Shown are the counts per 30 min., means± s.e.m. and number of experiments (n).

[3] = tested on: postsynaptic DA receptors; test: Antagonism of the reserpine-induced "neuroleptic syndrome" in the rat; type: in vivo; conditions: s.c., different doses, not even at nearly lethal doses
Description: 1. Antagonism of the reserpine-induced "neuroleptic syndrome" in the rat
Depletion of the monoamine stores with reserpine brings about a "neuroleptic syndrome" characterized by hypomotility, catalepsy, muscle rigidity, hunch-backed posture as well as a number of other central and peripheral signs of monoamine depletion. This syndrome can be reversed by the administration of drugs that stimulate postsynaptic DA receptors directly or indirectly, e.g. apomorphine, L-Dopa.
Rats (150-300 g) pretreated with reserpine (10 mg/kg i.p., 6 h before) were given compound 4 subcutaneously at different doses.

[4] = tested on: postsynaptic DA receptors; test: Emetic activity in dogs; type: in vivo; conditions: at least at 1 mg/kg i.m.
Description: (§1) It was in fact lacking any measurable temperature effects.

DA autoreceptors [5] = test: Antagonism of γ-butyrolactone (GBL)-induced increase in rat brain DA synthesis rate; type: in vivo
Method: 3. Antagonism ofγ-butyrolactone (GBL)-induced increase in rat brain DA synthesis rate.
The administration of GBL in anesthetic doses inhibits nerve impulse flow in central DA neurons, thus resulting in a loss of the impulse-mediated feedback control of tyrosine hydroxylase activity and in a subsequent increase in transmitter synthesis rate (which is determined as described under 2 above). Since the GBL inhibition precludes neuronal feedback actions, antagonistic effects exerted by DA-receptor agonists upon the GBL-induced increase in synthesis are in all probability to be ascribed to their stimulating the DA autoreceptors present in the terminal area of the DA neurons.
Rats (150-300 g), were given compound 4 subcutaneously at several doses (n=7) followed by GBL (750 mg/kg i.p., 5 min. later) and NSD 1015 (100 mg/kg i.p., 10 min. later). By a subsequent procedure according to 2 above the Dopa levels (representing the DA-synthesis rates) were determined. […] The maximal reversal of the GBL-induced increase in DA synthesis rate was approximately 160% in the limbic system and 110% in corpus striatum.

[6] = tested on: rat brain tyrosine hydroxylation; test: In-vivo determination of rat brain tyrosine hydroxylation (Dopa formation after NSD 1015, reserpine-pretreated rats); conditions: sc, reserpine-pretreated rats, Dopa level
Method: 2. In-vivo determination of rat brain tyrosine hydroxylation.
The compounds under evaluation were tested biochemically for central DA-receptor (pre- and/or postsynaptic) stimulating activity. The concept of this biochemical screening method is that a DA-receptor agonist will stimulate the receptor and through regulatory feedback systems effect a decline in tyrosine hydroxylase activity and thus a subsequent reduction in the synthesis rate for DA in the presynaptic neuron. Dopa formation, as determined after in-vivo inhibition of the aromatic L-amino acid decarboxylase with NSD 1015 (3-hydroxybenzyl-hydrazine hydrochloride), is taken as an indirect measure of DA synthesis rate.
Rats (150-300 g) pretreated with reserpine were given the compounds under evaluation. Gross behavioral observations (changes in motility, stereotypies etc.) were made in order to evaluate possible postsynaptic dopamine receptor activity. Subsequent administration of NSD 1015, decapitation, brain dissection (corpora striate and the limbic fore-brain), homogenization, centrifugation, ion-exchange chromatography and spectrofluorimetric measurements (all as described in detail by Wikstrom et al., in J. Med. Chem. 21, 864-867, 1978, and references cited therein), gave the actual Dopa levels. Several doses (n=4-6) were tested in order to obtain dose-response curves for each compound and brain area. The dose of a compound producing a half-maximal decrease in the Dopa level in the rat brain part was then estimated.

Rat rectal temperature = type: in vivo; conditions: 8 mg/kg s.c., 0-30 min
Description: as §1

Structure (SMILES): Br.CCCN1CCCC(c2cccc(O)c2)C1 (racemic) [Compound 4, N-n-propyl-3-(3-hydroxyphenyl)piperidine hydrobromide]
- Catalepsy (DA autoreceptors [1]; 1 mg/kg s.c.): -
- Turning contralateral (DA autoreceptors [1]; 1 mg/kg s.c., 2 animals): 2
- Turning ipsilateral (DA autoreceptors [1]; 1 mg/kg s.c., 2 animals): 0
- Catalepsy (DA autoreceptors [1]; 2 mg/kg s.c.): -
- Duration of turning (DA autoreceptors [1]; 2 mg/kg s.c.): > 2 h
- Turning contralateral (DA autoreceptors [1]; 2 mg/kg s.c., 4 animals): 4
- Turning ipsilateral (DA autoreceptors [1]; 2 mg/kg s.c., 4 animals): 0
- Apomorphine-induced turning (DA autoreceptors [1]; 2 mg/kg s.c.): Ipsi 4/4
- Catalepsy (DA autoreceptors [1]; 4 mg/kg s.c.): -
- Turning contralateral (DA autoreceptors [1]; 4 mg/kg s.c., 2 animals): 2
- Turning ipsilateral (DA autoreceptors [1]; 4 mg/kg s.c., 2 animals): 0
- Catalepsy (DA autoreceptors [1]; 8 mg/kg s.c.): -
- Duration of turning (DA autoreceptors [1]; 8 mg/kg s.c.): > 4 h
- Turning contralateral (DA autoreceptors [1]; 8 mg/kg s.c., 4 animals): 4
- Turning ipsilateral (DA autoreceptors [1]; 8 mg/kg s.c., 4 animals): 0
- Apomorphine-induced turning (DA autoreceptors [1]; 8 mg/kg s.c.): Ipsi 4/4
- Catalepsy (DA autoreceptors [1]; 32 mg/kg s.c.): +
- Duration of turning (DA autoreceptors [1]; 32 mg/kg s.c.): > 4 h
- Turning contralateral (DA autoreceptors [1]; 32 mg/kg s.c., 8 animals): 8
- Turning ipsilateral (DA autoreceptors [1]; 32 mg/kg s.c., 8 animals): 0
- Apomorphine-induced turning (DA autoreceptors [1]; 32 mg/kg s.c.): Ipsi 8/8
- effect on apomorphine ipsilateral turning and rotatory response (DA autoreceptors [1]; apomorphine 1.0 mg/kg s.c., pretreatment with compound 4): not affected by pretreatment with compound 4
- turning direction (DA autoreceptors [1]; s.c., each dose tested): made the animals turn to the side contralateral to the lesion
- overall appearance (DA autoreceptors [1]; s.c., lesioned rats): indicative of a sedative action
- antagonism of apomorphine locomotor stimulation ([2]; 8 mg/kg s.c.): did not
- counts per 30 min., with apomorphine ([2]; 8 mg/kg s.c. + apomorphine 1 mg/kg s.c., means ± s.e.m., n=5): 443 ± 26 counts per 30 min.
- antagonism of the reserpine-induced syndrome [3]: no antagonism of the reserpine-induced syndrome was observed
- emetic activity [4]: devoid of emetic activity in dogs
- % Reversal of GBL-induced increase in dopamine synthesis rate (DA autoreceptors [5]; 0.5 mg/kg s.c., corpus striatum): 0%
- % Reversal of GBL-induced increase in dopamine synthesis rate (DA autoreceptors [5]; 0.5 mg/kg s.c., limbic system): 58%
- % Reversal of GBL-induced increase in dopamine synthesis rate (DA autoreceptors [5]; 1.0 mg/kg s.c., corpus striatum): 17%
- % Reversal of GBL-induced increase in dopamine synthesis rate (DA autoreceptors [5]; 1.0 mg/kg s.c., limbic system): 75%
- % Reversal of GBL-induced increase in dopamine synthesis rate (DA autoreceptors [5]; 2.0 mg/kg s.c., corpus striatum): 34%
- % Reversal of GBL-induced increase in dopamine synthesis rate (DA autoreceptors [5]; 2.0 mg/kg s.c., limbic system): 92%
- % Reversal of GBL-induced increase in dopamine synthesis rate (DA autoreceptors [5]; 4.0 mg/kg s.c., corpus striatum): 51%
- % Reversal of GBL-induced increase in dopamine synthesis rate (DA autoreceptors [5]; 4.0 mg/kg s.c., limbic system): 109%
- % Reversal of GBL-induced increase in dopamine synthesis rate (DA autoreceptors [5]; 8.0 mg/kg s.c., corpus striatum): 68%
- % Reversal of GBL-induced increase in dopamine synthesis rate (DA autoreceptors [5]; 8.0 mg/kg s.c., limbic system): 126%
- % Reversal of GBL-induced increase in dopamine synthesis rate (DA autoreceptors [5]; 16.0 mg/kg s.c., corpus striatum): 86%
- % Reversal of GBL-induced increase in dopamine synthesis rate (DA autoreceptors [5]; 16.0 mg/kg s.c., limbic system): 142%
- Dopa concentration (DA autoreceptors [5]; 32 mg/kg s.c. + GBL, limbic system, n=5): 191 ± 16 ng per g tissue
- Dopa concentration (DA autoreceptors [5]; 32 mg/kg s.c. + GBL, striatum, n=5): 1063 ± 74 ng per g tissue
- maximal reversal of the GBL-induced increase in DA synthesis rate (DA autoreceptors [5]; corpus striatum): ~110%
- blockade by haloperidol of the antagonism of GBL-induced increase (DA autoreceptors [5]; haloperidol): the antagonism could be blocked by haloperidol
- Dopa concentration (DA autoreceptors [5]; haloperidol 1 mg/kg i.p. + 32 mg/kg compound 4, limbic system, n=3): 387 ± 32 ng per g tissue
- Dopa concentration (DA autoreceptors [5]; haloperidol 1 mg/kg i.p. + 32 mg/kg compound 4, striatum, n=3): 2193 ± 53 ng per g tissue
- maximal reversal of the GBL-induced increase in DA synthesis rate (DA autoreceptors [5]; limbic system): approximately 160%
- dose dependence of antagonism of GBL-induced increase in DA synthesis rate (DA autoreceptors [5]; s.c., several doses): dose-dependently antagonized the GBL-induced increase in DA synthesis rate
- ED50 ([6]; limbic, read-out: ED50 Limbic): 2.7 µmol/kg
- ED50 ([6]; striatum, read-out: ED50 Striatum): 2.7 µmol/kg
- effect on rectal temperature (Rat rectal temperature): failed to lower the rat rectal temperature

Source: patent US4937346A, “Phenyl-azacykloalkanes” (Carlsson; Per Arvid Emil, priority 1979, dated 1990)
